Assay results: patent US4223036A, “1-(1,3-Dioxolan-2-ylmethyl)-1H-1,2,4-triazoles” (Janssen Pharmaceutica N.V., priority 1979, dated 1980)

Columns and labels:
Candida albicans [1] = assay: Activity against vaginal candidosis in rats (lowest oral dose active at the 14th day after infection); format: in vivo, Female Wistar rats; set-up: lowest effective oral dose (vaginal candidosis in rats): unit not given here; conditions: oral once a day for two days, active at 14th day after infection; for lowest effective oral dose (vaginal candidosis in rats): Table I; for minimal effective dose: Candida albicans, 336 h, Table II
Description: Experiment A: Activity of Compounds (I) Against Vaginal Candidosis in Rats
Female Wistar rats of ±100 g body weight were used. They were ovariectomized and hysterectomized and after three weeks of recovery, 100 μg of oestradiol undecylate in sesame oil was given subcutaneously once a week for 3 consecutive weeks. The thus induced pseudooestrus was controlled by microscopic examination of vaginal smears. Food and water were left available ad libitum.
The rats were infected intravaginally with 8.10^5 cells of Candida albicans, grown on Sabouraud broth for 48 hours at 37° C. and diluted with saline. The date of infection varied from day +25 to day +32 after surgical intervention, depending on the appearance of signs of induced pseudo-oestrus.
The drugs under investigation were administered orally once a day for two days starting from the day of infection. For each experiment there were placebo treated controls. The results were assessed by taking vaginal smears with sterile swabs on several days after infection. The swabs were put into Sabouraud broth in petri-dishes and incubated for 48 hours a 37° C. If no growth of Candida albicans occured, i.e., when the animals were negative at the end of the experiment, this was due to drug administration because it never happened in placebo treated controls.
The Tables I, II and III below give the lowest oral dose of the drug under investigation which was found active at the 14th day after infection.

Candida albicans [2] = assay: Activity against crop candidosis in turkeys (dose whereby crops of 50% of animals were completely negative); format: in vivo; conditions: medicated feed for 13 consecutive days
Description: Experiment B: Activity of Compounds (I) Against Crop Candidosis in Turkeys
Turkeys of 14 days old were infected in the crop with 4.10^6 Candida albicans cells, grown on Sabouraud broth for 48 hours at 37° C. and diluted with saline. The volume of the inoculum was 1 ml. The drug under investigation were premixed in 500 mg of lacton and thereafter admixed in 1000 g of meal without any additives. The concentration of the drug under investigation in the meal was expressed in mg/kg.
The animals were given the medicated feed for 13 consecutive days starting on the day of infection. At the end of the experiment all animals were sacrificed. At autopsy the crops were removed, emptied and grinded in an ultra-turrax mixer in 15 ml of sterile saline. Colony counting was done on Sabouraud agar and the results given in the Tables I, II and III represent the ED50, i.e., the dose of the drug whereby the crops of 50% of the animals were completely negative for Candida albicans.

Structure (SMILES)	lowest effective oral dose (vaginal candidosis in rats) (Candida albicans [1])	ED50 (crop candidosis in turkeys) (Candida albicans [2]; Table I)	minimal effective dose (Candida albicans [1]) [mg/kg]	ED50 (crop candidosis in turkeys) (Candida albicans [2]; Table II)
COC(=O)Nc1ccc(OC[C@H]2CO[C@](Cn3ccnc3)(c3ccc(Cl)cc3Cl)O2)cc1 (relative stereo) [NHCOOCH3, cis-methyl {4-[2-(2,4-dichlorophenyl)-2-(1H-imidazol-1-ylmethyl-1,3-dioxolan-4-ylmethoxy]phenyl}-carbamate nitrate]	5	31 mg/kg of feed	–	–
CNC(=O)Nc1ccc(OC[C@H]2CO[C@](Cn3ccnc3)(c3ccc(Cl)cc3Cl)O2)cc1 (relative stereo) [NHCONHCH3, cis-N-{4-[2-(2,4-dichlorophenyl)-2-(1H-imidazol-1-ylmethyl)-1,3-dioxolan-4-ylmethoxy]phenyl}-N'-methylurea]	10	125 mg/kg of feed	–	–
CCNC(=O)Nc1ccc(OC[C@H]2CO[C@](Cn3ccnc3)(c3ccc(Cl)cc3Cl)O2)cc1 (relative stereo) [NHCONHC2 H5, cis-N-{4-[2-(2,4-dichlorophenyl)-2-(1H-imidazol-1-ylmethyl)-1,3-dioxolan-4-ylmethoxy]phenyl}-N'-ethylurea]	10	125 mg/kg of feed	–	–
O=C(Nc1ccc(OC[C@H]2CO[C@](Cn3ccnc3)(c3ccc(Cl)cc3Cl)O2)cc1)c1ccccc1 (relative stereo)	5	63 mg/kg of feed	–	–
O=CNc1ccc(OC[C@H]2CO[C@](Cn3ccnc3)(c3ccc(Cl)cc3Cl)O2)cc1 (relative stereo) [NHCHO, cis-N-{4-[2-(2,4-dichlorophenyl)-2-(1H-imidazol-1-yl-methyl)-1,3-dioxolan-4-ylmethoxy]phenyl}formamide]	2.5	31 mg/kg of feed	–	–
CS(=O)(=O)N1CCN(c2ccc(OC[C@H]3CO[C@](Cn4cncn4)(c4ccc(Cl)cc4Cl)O3)cc2)CC1 (relative stereo) [SO2CH3]	–	–	1.25	31 mg/kg of feed
O=C(Nc1ccc(OC[C@H]2CO[C@](Cn3ccnc3)(c3ccc(Cl)cc3Cl)O2)cc1)c1ccc(F)cc1 (relative stereo)	5	16 mg/kg of feed	–	–
Nc1ccc(OC[C@H]2CO[C@](Cn3ccnc3)(c3ccc(Cl)cc3Cl)O2)cc1 (relative stereo) [NH2, cis-4-[2-(2,4-dichlorophenyl)-2-(1H-imidazol-1-ylmethyl)-1,3-dioxolan-4-ylmethoxy]benzenamine]	5	125 mg/kg of feed	–	–
COc1ccc(C(=O)Nc2ccc(OC[C@H]3CO[C@](Cn4ccnc4)(c4ccc(Cl)cc4Cl)O3)cc2)cc1 (relative stereo)	40	16 mg/kg of feed	–	–
CCC(=O)Nc1ccc(OC[C@H]2CO[C@](Cn3ccnc3)(c3ccc(Cl)cc3Cl)O2)cc1 (relative stereo) [NHCOC2 H5, cis-N-{4-[2-(2,4-dichlorophenyl)-2-(1H-imidazol-1-ylmethyl)-1,3-dioxolan-4-ylmethoxy]phenyl}propanaide ethanedioate. 2-propanolate]	10	31 mg/kg of feed	–	–
CC(C)CN1CCN(c2ccc(OC[C@H]3CO[C@](Cn4cncn4)(c4ccc(Cl)cc4Cl)O3)cc2)CC1 (relative stereo) [CH2CH(CH3)2]	–	–	2.5	31 mg/kg of feed
CCOC(=O)N1CCN(c2ccc(OC[C@H]3CO[C@](Cn4ccnc4)(c4ccc(Cl)cc4Cl)O3)cc2)CC1 (relative stereo) [drawing 31]	2.5	16 mg/kg of feed	–	–
Clc1ccc([C@@]2(Cn3ccnc3)OC[C@H](COc3ccc(N4CCN(Cc5ccccc5)CC4)cc3)O2)c(Cl)c1 (relative stereo) [drawing 50]	1.25	16 mg/kg of feed	–	–
